Measurements: ChEMBL document CHEMBL1146315, “Synthesis and evaluation of unsaturated caprolactams as interleukin-1beta converting enzyme (ICE) inhibitors” (Bioorg Med Chem, 2007)

Columns and labels:
[1] = system: THP-1; test: Inhibition of IL1-beta production in THP1 cells; assay type: functional, cell-based; conditions: Homo sapiens
[2] = molecular target: T1, Caspase-1 (Homo sapiens, UniProt P29466); test: Inhibition of ICE
T1 sequence (P29466 whole entry): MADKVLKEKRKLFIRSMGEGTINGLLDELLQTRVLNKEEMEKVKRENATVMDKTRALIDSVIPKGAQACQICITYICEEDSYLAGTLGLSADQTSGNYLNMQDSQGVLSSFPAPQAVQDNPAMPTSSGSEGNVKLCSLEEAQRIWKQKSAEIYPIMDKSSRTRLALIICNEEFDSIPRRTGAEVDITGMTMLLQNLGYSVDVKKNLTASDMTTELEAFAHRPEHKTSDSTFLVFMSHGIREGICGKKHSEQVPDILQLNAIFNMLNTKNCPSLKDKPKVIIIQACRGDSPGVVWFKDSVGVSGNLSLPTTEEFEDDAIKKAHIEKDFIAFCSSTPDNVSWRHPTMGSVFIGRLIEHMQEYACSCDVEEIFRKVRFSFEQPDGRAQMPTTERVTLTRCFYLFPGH

[3] = molecular target: T2, Caspase-3 (Homo sapiens, UniProt P42574); test: Inhibition of caspase 3
T2 sequence (P42574 whole entry): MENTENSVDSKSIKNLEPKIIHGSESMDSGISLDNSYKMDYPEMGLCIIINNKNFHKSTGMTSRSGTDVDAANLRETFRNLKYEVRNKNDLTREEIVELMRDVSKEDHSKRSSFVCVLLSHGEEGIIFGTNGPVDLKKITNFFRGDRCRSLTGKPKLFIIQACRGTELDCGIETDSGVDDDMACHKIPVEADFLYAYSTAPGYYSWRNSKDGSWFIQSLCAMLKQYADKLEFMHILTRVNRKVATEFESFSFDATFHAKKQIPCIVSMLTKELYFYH

[4] = Half life in Sprague-Dawley rat at 30 mg/kg, iv; assay type: ADME, organism-based; design: dose 30 mg/kg, route intravenous; conditions: in vivo
[5] = Half life in Sprague-Dawley rat at 30 mg/kg, po; assay type: ADME, organism-based; design: dose 30 mg/kg, route oral; conditions: in vivo
[6] = system: Rattus norvegicus; test: (§1) Bioavailability in Sprague-Dawley rat at 30 mg/kg, po; assay type: ADME, organism-based; conditions: in vivo
[7] = molecular target: Caspase-8 (Homo sapiens, UniProt Q14790); test: Inhibition of caspase 8
[8] = Cmax in Sprague-Dawley rat at 30 mg/kg, iv; assay type: ADME, organism-based; design: dose 30 mg/kg, route intravenous; conditions: in vivo
[9] = Cmax in Sprague-Dawley rat at 30 mg/kg, po; assay type: ADME, organism-based; design: dose 30 mg/kg, route oral; conditions: in vivo
[10] = system: Rattus norvegicus; test: AUC (0 to infinity) in Sprague-Dawley rat at 30 mg/kg, iv; assay type: ADME, organism-based, Plasma; design: time infinity, dose 30 mg/kg, route intravenous; conditions: in vivo
[11] = system: Rattus norvegicus; test: (§2) AUC (0 to infinity) in Sprague-Dawley rat at 30 mg/kg, po; assay type: ADME, organism-based, Plasma; design: time infinity, dose 30 mg/kg, route oral; conditions: in vivo
[12] = as §2; assay type: ADME, organism-based, Plasma; design: time infinity, dose 30 mg/kg, route oral; conditions: Sprague-Dawley, plasma
[13] = as §1; assay type: ADME, organism-based; conditions: Sprague-Dawley, in vivo

Sequence of Caspase-8 (Q14790 217-374 limits assumed): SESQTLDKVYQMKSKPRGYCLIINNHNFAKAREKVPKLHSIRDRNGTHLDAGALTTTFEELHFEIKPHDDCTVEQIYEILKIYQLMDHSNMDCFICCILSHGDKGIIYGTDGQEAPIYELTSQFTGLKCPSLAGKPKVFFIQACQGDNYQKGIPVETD
Sequence of Caspase-8 (Q14790 385-479 limits assumed): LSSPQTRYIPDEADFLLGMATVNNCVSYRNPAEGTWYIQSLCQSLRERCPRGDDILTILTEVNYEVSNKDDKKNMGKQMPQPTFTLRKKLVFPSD

SMILES	IC50 [1]	IC50 [2]	IC50 [3]	IC50 [7]	also measured
O=C[C@H](CC(=O)O)NC(=O)[C@@H]1COC[C@@H]2C/C=C\C[C@H](NC(=O)c3nccc4ccccc34)C(=O)N21	0.182 µM	0.003 µM	–	–	–
O=C(CN1CC/C=C\C[C@H](NC(=O)c2nccc3ccccc23)C1=O)N[C@H]1CC(=O)OC1O (some centres undefined)	–	0.077 µM	–	–	–
O=C(CN1CC=CC[C@H](NC(=O)c2ccc3ccccc3c2)C1=O)N[C@H]1CC(=O)OC1O (some centres undefined)	0.1 µM	0.014 µM	> 10 µM	2.16 µM	half-life [4]: 0.2 h; half-life [5]: 1.3 h; F [6]: 2%; Cmax [8]: 6790 ng/mL; Cmax [9]: 264 ng/mL; AUC [10]: 1970 ng·h/mL; AUC [11]: 320 ng·h/mL
O=C(CN1CC=CC[C@H](NC(=O)c2cc3ccccc3s2)C1=O)N[C@H]1CC(=O)OC1O (some centres undefined)	0.712 µM	0.02 µM	> 10 µM	1.45 µM	–
O=C(CN1CC=CC[C@H](NC(=O)c2ccccc2)C1=O)N[C@H]1CC(=O)OC1O (some centres undefined)	1.08 µM	0.168 µM	> 10 µM	4.2 µM	–
O=C(CN1CC=CC[C@H](NC(=O)c2cccc(Cl)c2)C1=O)N[C@H]1CC(=O)OC1O (some centres undefined)	0.383 µM	0.029 µM	> 10 µM	1.18 µM	–
O=C(CN1CC=CC[C@H](NC(=O)c2cc(Cl)ccc2Cl)C1=O)N[C@H]1CC(=O)OC1O (some centres undefined)	0.071 µM	0.015 µM	> 10 µM	0.554 µM	–
C[C@H](C(=O)N[C@H]1CC(=O)OC1O)N1CC=CC[C@H](NC(=O)c2ccc3ccccc3c2)C1=O (some centres undefined)	0.871 µM	0.013 µM	> 10 µM	0.537 µM	–
CC1=CC[C@H](NC(=O)c2ccc3ccccc3c2)C(=O)N(CC(=O)N[C@H]2CC(=O)OC2O)C1 (some centres undefined)	0.153 µM	0.019 µM	> 10 µM	2.69 µM	–
CCOC1OC(=O)C[C@@H]1NC(=O)CN1CC(CNC(=O)c2ccc(OC)cc2)=CC[C@H](NC(=O)c2ccc3ccccc3c2)C1=O (some centres undefined)	–	–	–	–	half-life [5]: 7.1 h; Cmax [9]: 9 ng/mL; AUC(0-inf) [12]: 30 ng·h/mL
COc1ccccc1C(=O)NCC1=CC[C@H](NC(=O)c2ccc3ccccc3c2)C(=O)N(CC(=O)N[C@H]2CC(=O)OC2O)C1 (some centres undefined)	1.34 µM	0.002 µM	3.37 µM	0.887 µM	–
O=C(CN1CC(CSCc2ccccc2)=CC[C@H](NC(=O)c2ccc3ccccc3c2)C1=O)N[C@H]1CC(=O)OC1O (some centres undefined)	1.28 µM	0.008 µM	> 10 µM	1.61 µM	–
COc1ccc(C(=O)NCC2=CC[C@H](NC(=O)c3ccc4ccccc4c3)C(=O)N(CC(=O)N[C@H]3CC(=O)OC3O)C2)cc1 (some centres undefined)	0.095 µM	0.001 µM	1.13 µM	0.471 µM	–
CCOC1OC(=O)C[C@@H]1NC(=O)CN1CC=CC[C@H](NC(=O)c2ccc3ccccc3c2)C1=O (some centres undefined)	–	–	–	–	half-life [5]: 3.4 h; bioavailability [13]: > 90%; Cmax [9]: 9360 ng/mL; AUC(0-inf) [12]: 21000 ng·h/mL
CCOC1OC(=O)C[C@@H]1NC(=O)[C@H](C)N1CC=CC[C@H](NC(=O)c2ccc3ccccc3c2)C1=O (some centres undefined)	–	–	–	–	half-life [5]: 5.1 h; Cmax [9]: 720 ng/mL; AUC(0-inf) [12]: 4530 ng·h/mL
C[C@@H](C(=O)N[C@H]1CC(=O)OC1O)N1CC=CC[C@H](NC(=O)c2ccc3ccccc3c2)C1=O (some centres undefined)	0.036 µM	0.001 µM	7.51 µM	0.162 µM	–
O=C[C@H](CC(=O)O)NC(=O)[C@@H]1CC[C@@H]2C/C=C\C[C@H](NC(=O)c3nccc4ccccc34)C(=O)N21	0.188 µM	0.004 µM	–	–	–
O=C(CN1CC=CC[C@H](NC(=O)c2nccc3ccccc23)C1=O)N[C@H]1CC(=O)OC1O (some centres undefined)	0.586 µM	0.027 µM	> 10 µM	2.93 µM	–
O=C(CN1CC(CNC(=O)c2ccccc2)=CC[C@H](NC(=O)c2ccc3ccccc3c2)C1=O)N[C@H]1CC(=O)OC1O (some centres undefined)	0.466 µM	0.002 µM	1.7 µM	1.08 µM	–
O=C(CN1CC=CC[C@H](NC(=O)c2cccc(C(F)(F)F)c2)C1=O)N[C@H]1CC(=O)OC1O (some centres undefined)	0.554 µM	0.011 µM	> 10 µM	1.96 µM	–
COc1cccc(C(=O)NCC2=CC[C@H](NC(=O)c3ccc4ccccc4c3)C(=O)N(CC(=O)N[C@H]3CC(=O)OC3O)C2)c1 (some centres undefined)	0.243 µM	0.001 µM	1.08 µM	0.448 µM	–
O=C(CN1CC(CNCc2ccccc2)=CC[C@H](NC(=O)c2ccc3ccccc3c2)C1=O)N[C@H]1CC(=O)OC1O (some centres undefined)	0.232 µM	0.007 µM	> 10 µM	10 µM	–
O=C(CN1CC(CNS(=O)(=O)c2ccccc2)=CC[C@H](NC(=O)c2ccc3ccccc3c2)C1=O)N[C@H]1CC(=O)OC1O (some centres undefined)	0.326 µM	0.003 µM	6.81 µM	0.109 µM	–
COc1cccc(C(=O)N[C@H]2CC=CCN(CC(=O)N[C@H]3CC(=O)OC3O)C2=O)c1 (some centres undefined)	1.23 µM	0.053 µM	> 10 µM	1.23 µM	–
O=C(CN1CC(CO)=CC[C@H](NC(=O)c2ccc3ccccc3c2)C1=O)N[C@H]1CC(=O)OC1O (some centres undefined)	0.543 µM	0.022 µM	> 10 µM	2.11 µM	–
O=C[C@H](CC(=O)O)NC(=O)[C@@H]1CCCN2C(=O)CC[C@H](NC(=O)c3nccc4ccccc34)C(=O)N12 [VRT-18858]	–	0.004 µM	–	–	–
